Laboratory results published in article PMC7206119, “RIP1 inhibition blocks inflammatory diseases but not tumor growth or metastases” (Cell Death and Differentiation, 2019).

Legend:
Test in all cases: biochemical
Design in all cases: Thermo Fisher SelectScreen kinase panel: Z'-LYTE and Adapta activity, LanthaScreen binding
RSK2 = target: T1, RSK2 (Homo sapiens, UniProt P51812)
T1 construct: gene RPS6KA3
In short: (§1)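 GNE684 profiled at 10 µM across 221 kinases with Z'-LYTE and Adapta activity and LanthaScreen binding formats. Also screened at 10 µM against 468 kinases in KINOMEscan scanMAX binding assay.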

TTK = TTK (Homo sapiens, UniProt P33981)
In short: as §1

DDR1 = DDR1 (Homo sapiens, UniProt Q08345)
In short: as §1

p38_alpha(direct) = target: T2, p38_alpha(direct) (Homo sapiens, UniProt Q16539)
T2 construct: gene MAPK14; direct
In short: as §1

JNK2 = target: T3, JNK2 (Homo sapiens, UniProt P45984)
T3 construct: gene MAPK9
In short: as §1

PLK1 = PLK1 (Homo sapiens, UniProt P53350)
In short: as §1

MEK1 = target: T4, MEK1 (Homo sapiens, UniProt Q02750)
T4 construct: gene MAP2K1
In short: as §1

FGFR4 = FGFR4 (Homo sapiens, UniProt P22455)
In short: as §1

CLK1 = CLK1 (Homo sapiens, UniProt P49759)
In short: as §1

FES = FES (Homo sapiens, UniProt P07332)
In short: as §1

EPHA3 = EPHA3 (Homo sapiens, UniProt P29320)
In short: as §1

PKC_alpha = target: T5, PKC_alpha (Homo sapiens, UniProt P17252)
T5 construct: gene PRKCA
In short: as §1

MYLK(smMLCK) = target: T6, MYLK(smMLCK) (Homo sapiens, UniProt Q15746)
T6 construct: smooth muscle MLCK
In short: as §1

IRAK4 = IRAK4 (Homo sapiens, UniProt Q9NWZ3)
In short: as §1

DYRK3 = DYRK3 (Homo sapiens, UniProt O43781)
In short: as §1

ASK1 = target: T7, ASK1 (Homo sapiens, UniProt Q99683)
T7 construct: gene MAP3K5
In short: as §1

ZAK = target: T8, ZAK (Homo sapiens, UniProt Q9NYL2)
T8 construct: gene MAP3K20
In short: as §1

EPHA8 = EPHA8 (Homo sapiens, UniProt P29322)
In short: as §1

CDK9/cyclinT1 = CDK9/cyclinT1 (Homo sapiens, UniProt P50750)
In short: as §1

TIE2 = target: T9, TIE2 (Homo sapiens, UniProt Q02763)
T9 construct: gene TEK
In short: as §1

PKC_beta1 = target: T10, PKC_beta1 (Homo sapiens, UniProt P05771)
T10 construct: gene PRKCB; isoform beta I
In short: as §1

RSK1 = target: T11, RSK1 (Homo sapiens, UniProt Q15418)
T11 construct: gene RPS6KA1
In short: as §1

FRK = FRK (Homo sapiens, UniProt P42685)
In short: as §1

T6 sequence (Q15746 whole entry): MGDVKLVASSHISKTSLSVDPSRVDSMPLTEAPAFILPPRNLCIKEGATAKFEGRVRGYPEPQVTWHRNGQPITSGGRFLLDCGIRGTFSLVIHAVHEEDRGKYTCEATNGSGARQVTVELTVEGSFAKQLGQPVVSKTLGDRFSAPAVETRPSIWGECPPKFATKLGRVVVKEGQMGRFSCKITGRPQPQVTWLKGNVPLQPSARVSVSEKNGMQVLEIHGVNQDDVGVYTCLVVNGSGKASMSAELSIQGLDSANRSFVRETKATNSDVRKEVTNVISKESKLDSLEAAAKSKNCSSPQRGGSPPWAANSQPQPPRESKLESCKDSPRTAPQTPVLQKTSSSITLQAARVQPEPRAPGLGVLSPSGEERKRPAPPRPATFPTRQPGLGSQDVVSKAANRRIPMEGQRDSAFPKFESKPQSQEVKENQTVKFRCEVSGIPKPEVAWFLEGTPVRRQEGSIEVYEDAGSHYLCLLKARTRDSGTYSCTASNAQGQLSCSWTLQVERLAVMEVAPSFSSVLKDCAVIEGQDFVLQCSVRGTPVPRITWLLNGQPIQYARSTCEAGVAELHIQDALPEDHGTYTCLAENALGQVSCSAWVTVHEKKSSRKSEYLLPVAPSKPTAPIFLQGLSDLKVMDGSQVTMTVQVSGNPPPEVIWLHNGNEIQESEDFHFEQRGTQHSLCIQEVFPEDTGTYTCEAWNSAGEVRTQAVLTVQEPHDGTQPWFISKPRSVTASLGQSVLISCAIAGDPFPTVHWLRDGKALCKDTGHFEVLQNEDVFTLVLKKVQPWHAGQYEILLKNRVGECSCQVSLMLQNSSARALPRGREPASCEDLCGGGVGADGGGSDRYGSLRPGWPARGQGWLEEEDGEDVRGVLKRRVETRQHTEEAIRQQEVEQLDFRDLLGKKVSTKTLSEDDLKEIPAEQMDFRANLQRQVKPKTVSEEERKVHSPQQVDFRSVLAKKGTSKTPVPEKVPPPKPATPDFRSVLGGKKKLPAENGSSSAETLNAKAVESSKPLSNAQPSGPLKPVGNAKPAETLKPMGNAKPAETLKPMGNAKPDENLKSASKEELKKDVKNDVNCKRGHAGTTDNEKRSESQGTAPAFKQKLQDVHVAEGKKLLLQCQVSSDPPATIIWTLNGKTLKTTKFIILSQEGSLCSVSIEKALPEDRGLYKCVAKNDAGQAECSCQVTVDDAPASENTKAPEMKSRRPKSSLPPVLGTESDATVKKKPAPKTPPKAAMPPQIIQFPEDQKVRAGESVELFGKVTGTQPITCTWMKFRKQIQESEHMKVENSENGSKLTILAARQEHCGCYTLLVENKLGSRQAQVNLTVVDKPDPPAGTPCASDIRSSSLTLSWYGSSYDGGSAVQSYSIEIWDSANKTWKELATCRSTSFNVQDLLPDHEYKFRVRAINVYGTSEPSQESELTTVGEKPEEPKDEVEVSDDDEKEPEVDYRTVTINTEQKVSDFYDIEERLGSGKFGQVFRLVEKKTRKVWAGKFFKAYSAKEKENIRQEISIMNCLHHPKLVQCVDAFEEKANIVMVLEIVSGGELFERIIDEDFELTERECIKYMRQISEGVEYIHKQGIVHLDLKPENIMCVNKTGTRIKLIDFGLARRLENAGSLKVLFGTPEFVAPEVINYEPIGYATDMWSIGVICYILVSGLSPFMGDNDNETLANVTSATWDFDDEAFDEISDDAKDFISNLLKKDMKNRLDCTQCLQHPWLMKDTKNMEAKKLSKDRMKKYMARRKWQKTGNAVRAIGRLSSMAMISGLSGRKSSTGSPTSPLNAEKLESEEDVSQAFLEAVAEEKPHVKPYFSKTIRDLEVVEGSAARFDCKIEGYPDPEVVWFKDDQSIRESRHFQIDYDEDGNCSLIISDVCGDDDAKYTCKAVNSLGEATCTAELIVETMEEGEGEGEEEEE
T2 sequence (Q16539 whole entry): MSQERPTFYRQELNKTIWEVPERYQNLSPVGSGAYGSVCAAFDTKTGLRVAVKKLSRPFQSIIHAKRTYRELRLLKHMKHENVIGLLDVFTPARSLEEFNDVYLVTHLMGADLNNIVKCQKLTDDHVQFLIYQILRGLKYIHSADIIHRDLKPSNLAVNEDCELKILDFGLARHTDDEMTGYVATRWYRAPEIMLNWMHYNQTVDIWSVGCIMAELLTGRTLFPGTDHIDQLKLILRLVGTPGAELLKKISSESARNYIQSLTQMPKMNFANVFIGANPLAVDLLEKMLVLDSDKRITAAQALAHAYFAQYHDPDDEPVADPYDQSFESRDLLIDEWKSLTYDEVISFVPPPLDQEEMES
Chain of DYRK3 (O43781 whole entry): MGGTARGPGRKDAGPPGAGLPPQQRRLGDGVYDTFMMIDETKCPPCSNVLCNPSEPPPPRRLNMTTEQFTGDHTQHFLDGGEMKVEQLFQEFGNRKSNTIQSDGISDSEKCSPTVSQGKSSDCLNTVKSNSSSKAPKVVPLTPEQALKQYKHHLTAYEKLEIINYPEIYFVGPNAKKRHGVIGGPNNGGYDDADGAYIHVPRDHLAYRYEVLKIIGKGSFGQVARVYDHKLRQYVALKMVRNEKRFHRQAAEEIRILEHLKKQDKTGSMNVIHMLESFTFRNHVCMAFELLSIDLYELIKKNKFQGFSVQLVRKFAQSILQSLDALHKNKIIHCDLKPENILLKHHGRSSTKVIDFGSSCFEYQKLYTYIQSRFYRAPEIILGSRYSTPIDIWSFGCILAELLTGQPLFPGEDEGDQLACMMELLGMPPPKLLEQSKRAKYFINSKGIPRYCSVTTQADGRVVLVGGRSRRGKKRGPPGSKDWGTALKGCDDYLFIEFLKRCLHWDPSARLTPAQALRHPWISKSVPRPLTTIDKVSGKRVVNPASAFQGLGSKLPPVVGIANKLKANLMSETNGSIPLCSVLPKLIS
Chain of EPHA3 (P29320 whole entry): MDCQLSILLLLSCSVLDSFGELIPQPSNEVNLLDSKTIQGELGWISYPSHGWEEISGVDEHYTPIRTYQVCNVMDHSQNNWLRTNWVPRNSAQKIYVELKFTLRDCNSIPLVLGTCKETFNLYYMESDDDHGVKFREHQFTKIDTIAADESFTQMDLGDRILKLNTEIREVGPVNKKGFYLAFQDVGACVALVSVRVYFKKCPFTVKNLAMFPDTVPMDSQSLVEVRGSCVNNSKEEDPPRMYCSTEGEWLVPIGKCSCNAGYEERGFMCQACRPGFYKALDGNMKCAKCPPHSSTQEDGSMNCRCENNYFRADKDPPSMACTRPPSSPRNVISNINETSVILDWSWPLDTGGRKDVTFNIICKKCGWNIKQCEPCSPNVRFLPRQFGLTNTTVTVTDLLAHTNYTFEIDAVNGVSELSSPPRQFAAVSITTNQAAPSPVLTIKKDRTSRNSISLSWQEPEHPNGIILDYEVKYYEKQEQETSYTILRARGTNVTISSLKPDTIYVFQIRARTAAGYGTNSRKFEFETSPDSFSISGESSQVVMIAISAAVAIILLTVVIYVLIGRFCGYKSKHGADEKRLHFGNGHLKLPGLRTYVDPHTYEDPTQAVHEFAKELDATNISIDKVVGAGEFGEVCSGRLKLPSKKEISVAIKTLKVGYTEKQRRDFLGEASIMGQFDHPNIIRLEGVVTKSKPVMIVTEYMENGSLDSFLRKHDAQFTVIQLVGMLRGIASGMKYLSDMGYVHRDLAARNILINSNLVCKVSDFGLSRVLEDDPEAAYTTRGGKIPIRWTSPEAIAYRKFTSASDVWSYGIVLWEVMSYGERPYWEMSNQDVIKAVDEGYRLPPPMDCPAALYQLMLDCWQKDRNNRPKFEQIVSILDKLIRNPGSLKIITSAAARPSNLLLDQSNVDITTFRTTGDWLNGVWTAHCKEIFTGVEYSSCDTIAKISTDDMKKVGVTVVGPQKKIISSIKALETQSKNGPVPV
T10 sequence (P05771 whole entry, canonical isoform): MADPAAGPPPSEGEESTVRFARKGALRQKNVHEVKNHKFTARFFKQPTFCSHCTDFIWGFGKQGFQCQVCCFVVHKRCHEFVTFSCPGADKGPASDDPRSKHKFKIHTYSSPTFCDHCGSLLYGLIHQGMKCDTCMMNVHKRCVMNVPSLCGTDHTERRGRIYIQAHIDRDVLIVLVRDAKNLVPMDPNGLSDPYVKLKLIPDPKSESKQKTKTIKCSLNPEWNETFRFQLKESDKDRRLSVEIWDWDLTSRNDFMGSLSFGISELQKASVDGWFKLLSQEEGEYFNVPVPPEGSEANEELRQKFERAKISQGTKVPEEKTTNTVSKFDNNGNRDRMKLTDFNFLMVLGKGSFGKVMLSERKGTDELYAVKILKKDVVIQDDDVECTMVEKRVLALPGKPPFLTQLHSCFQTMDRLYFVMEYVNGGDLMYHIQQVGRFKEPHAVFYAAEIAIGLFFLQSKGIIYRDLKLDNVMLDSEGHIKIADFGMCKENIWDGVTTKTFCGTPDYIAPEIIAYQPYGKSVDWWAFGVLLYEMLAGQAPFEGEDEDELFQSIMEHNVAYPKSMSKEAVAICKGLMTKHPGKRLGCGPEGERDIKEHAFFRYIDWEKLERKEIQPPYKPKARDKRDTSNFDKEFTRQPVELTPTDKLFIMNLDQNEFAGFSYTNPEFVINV
T4 sequence (Q02750 whole entry): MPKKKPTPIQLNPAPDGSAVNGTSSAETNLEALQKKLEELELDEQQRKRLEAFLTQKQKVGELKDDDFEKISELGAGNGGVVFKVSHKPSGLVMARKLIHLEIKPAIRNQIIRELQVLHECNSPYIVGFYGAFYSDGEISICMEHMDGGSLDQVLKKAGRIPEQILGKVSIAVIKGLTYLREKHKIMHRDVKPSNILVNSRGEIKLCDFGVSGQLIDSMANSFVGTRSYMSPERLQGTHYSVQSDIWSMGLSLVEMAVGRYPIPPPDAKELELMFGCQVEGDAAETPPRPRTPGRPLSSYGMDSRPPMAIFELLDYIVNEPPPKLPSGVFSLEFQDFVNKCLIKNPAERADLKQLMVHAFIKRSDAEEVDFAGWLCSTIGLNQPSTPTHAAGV

COc1cc2c(cn1)N(C)C(=O)[C@@H](NC(=O)c1nc3n(n1)[C@H](c1ccccc1)CC3)CC2 [GNE684, (S)-N-((S)-7-methoxy-1-methyl-2-oxo-2,3,4,5-tetrahydro-1H-pyrido[3,4-b]azepin-3-yl)-5-phenyl-6,7-dihydro-5H-pyrrolo[1,2-b][1,2,4]triazole-2-carboxamide]
inhibition at 10 µM (RSK2): 4% | inhibition at 10 µM (TTK): -2.5% | inhibition at 10 µM (DDR1): 4.5% | inhibition at 10 µM (p38_alpha(direct)): 3.5% | inhibition at 10 µM (JNK2): -4% | inhibition at 10 µM (PLK1): 4% | inhibition at 10 µM (MEK1): -7.5% | inhibition at 10 µM (FGFR4): -6.5% | inhibition at 10 µM (CLK1): -0.5% | inhibition at 10 µM (FES): 3% | inhibition at 10 µM (EPHA3): -3.5% | inhibition at 10 µM (PKC_alpha): 3% | inhibition at 10 µM (MYLK(smMLCK)): -5% | inhibition at 10 µM (IRAK4): 5% | inhibition at 10 µM (DYRK3): 2% | inhibition at 10 µM (ASK1): 4% | inhibition at 10 µM (ZAK): -0.5% | inhibition at 10 µM (EPHA8): 5.5% | inhibition at 10 µM (CDK9/cyclinT1): 9% | inhibition at 10 µM (TIE2): -4.5% | inhibition at 10 µM (PKC_beta1): 3.5% | inhibition at 10 µM (RSK1): 4.5% | inhibition at 10 µM (FRK): 4.5%
